This passage reports IC50 results from patent publication US9133187B2, “Serine/threonine kinase inhibitors” (ARRAY BIOPHARMA INC., priority 2011, dated 2015).

For test [1], the target named is human ERK-2 (Mitogen Activated Kinase 1) (Homo sapiens (Human), UniProt P28482). Kind of test: ERK-2 Enzymatic Assay. It counts as biochemical. To be noted: 5 nM ERK-2, 25 μM ATP, Omnia peptide S/T17; read-out: ERK Inhibition IC50. The method, then: Compounds were tested in an enzymatic assay using human ERK-2 (Mitogen Activated Kinase 1), recombinantly expressed as an n-terminal 6-His fusion protein in E. coli and corresponding to aa 8-360. The substrate used was the fluorescent Omnia peptide S/T17 (Invitrogen of Carlsbad, Calif.; Cat. KNZ1171C). Test compounds were diluted in DMSO in 3-fold serial dilutions at 100× final concentrations. […] The assay was run at ambient temperature in a white 384-well polypropylene plate (Nunc, Inc of Naperville, Ill.; Cat. 267462) collecting data every 50 seconds for approximately 30 minutes on an Envision plate reader (PerkinElmer, Inc. of Waltham, Mass.); Excitation 340 nm/Emission 495 nm. The data collected from each well was fit to a straight line and the resulting rates were used to calculate percent of control. Percent of control was plotted against compound concentration and IC50 values were determined using a four-parameter fit.
Chain of human ERK-2 (Mitogen Activated Kinase 1) (P28482 8-360): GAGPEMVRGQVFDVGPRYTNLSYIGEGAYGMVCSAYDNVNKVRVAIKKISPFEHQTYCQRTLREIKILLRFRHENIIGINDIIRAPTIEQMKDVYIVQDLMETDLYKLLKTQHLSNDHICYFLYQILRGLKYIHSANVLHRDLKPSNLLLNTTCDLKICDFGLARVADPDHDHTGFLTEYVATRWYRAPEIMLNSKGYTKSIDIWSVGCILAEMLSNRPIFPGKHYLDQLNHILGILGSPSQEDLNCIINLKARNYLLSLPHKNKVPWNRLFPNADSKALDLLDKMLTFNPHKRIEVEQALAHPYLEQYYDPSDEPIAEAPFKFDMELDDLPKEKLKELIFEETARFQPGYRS

In test [2] the test system is PMA-stimulated P90RSK(Ser380) phosphorylation in HepG2 cells. Briefly: Cellular P90RSK(Ser380) Phosphorylation Assay. In kind it is cell-based. To be noted: Homo sapiens, 1.5 h compound incubation, PMA stimulation, pP90RSK(Ser380) normalized to GAPDH, read-out: Cell Assay IC50. As to the method:
Inhibition of PMA-stimulated P90RSK(Ser380) phosphorylation was determined by the following in vitro cellular mechanistic assay, which comprises incubating cells with a compound for 1.5 hours and quantifying fluorescent pP90RSK(Ser380) signal on fixed cells and normalizing to GAPDH signal.
Materials and Methods: HepG2 cells were obtained from ATCC and grown in DMEM supplemented with 10% fetal bovine serum. Cells were plated in 96-well plates at 35,000 cells/well and allowed to attach overnight at 37° C./5% CO2. Diluted compounds were then added at a final concentration of 0.5% DMSO. After 1.5 hour compound incubation, cells were stimulated with the addition of PMA (phorbol 12-myristate 13-acetate) at a final concentration of 100 ng/mL; the PMA stimulation was a 30-minute incubation at 37° C./5% CO2. After the 30-minute PMA stimulation, cells were washed with PBS and fixed in 3.7% formaldehyde in PBS at room temperature for 15-20 minutes. This was followed by another wash in PBS and then permeabilization in 100% MeOH at room temperature for 10-15 minutes. Following the permeabilization incubation, cells were washed in PBS/0.05% Tween-20, followed by a block in Odyssey blocking buffer (LI-COR Biosciences) for at least 1 hour. Antibodies to phosphorylated P90RSK(Ser380) (Cell Signaling #9335, rabbit monoclonal) and GAPDH (Fitzgerald 10R-G109a, mouse monoclonal) were added to the cells and incubated overnight at 4° C. pP90RSK(Ser380) antibody was used at a 1:250 dilution; GAPDH was used at a 1:10,000 dilution. After washing with PBS/0.05% Tween-20, the cells were incubated with fluorescently-labeled secondary antibodies (Anti-rabbit-Alexa Flour680, Invitrogen Cat#A21109; Anti-mouse-IRDye800CW, Rockland Inc. Cat#610-131-121) for 1 hour. Both secondary antibodies were used at a 1:1000 dilution. Cells were then washed and analyzed for fluorescence at both wavelengths using the Odyssey Infrared Imaging System (LI-COR Biosciences). Phosphorylated P90RSK(Ser380) signal was normalized to GAPDH signal. Representative date is in TABLE III (infra).

Structures are written as SMILES.

For `COCC(=O)OC[C@@H](NC(=O)N1CCc2cnc(NC3CCOCC3)nc2C1)c1ccc(F)c(Cl)c1` [Compound I-56, (S)-2-(3-chloro-4-fluorophenyl)-2-(2-(tetrahydro-2H-pyran-4-ylamino)-5,6,7,8-tetrahydropyrido[3,4-d]pyrimidine-7-carboxamido)ethyl 2-methoxyacetate], the results for the IC50 in test [1] and in test [2] were 5.3 nM and 66.2 nM, respectively.
On the same counts, the results for `C[C@@H](NC(=O)N1CCc2cnc(NC(CO)CO)nc2C1)c1ccc(Cl)c(Cl)c1` [Compound I-75, (R)—N-(1-(3,4-dichlorophenyl)ethyl)-2-(1,3-dihydroxypropan-2-ylamino)-5,6-dihydropyrido[3,4-d]pyrimidine-7(8H)-carboxamide] are 5.6 nM and 314 nM.
On the same counts, the results for `C[C@@H](NC(=O)N1CCc2cnc(N[C@H]3CCC(F)(F)C3)nc2C1)c1ccc(Cl)c(Cl)c1` [II-116, 2-((S)-3,3-Difluoro-cyclopentylamino)-5,8-dihydro-6H-pyrido[3,4-d]pyrimidine-7-carboxylic acid [(R)-1-(3,4-dichloro-phenyl)-ethyl]-amide] are 2.33 nM and 130 nM.
On the same counts, the results for `C[C@@H](CO)Nc1ncc2c(n1)CN(C(=O)NCc1nc3ccccc3o1)CC2` [II-151, 2-((S)-2-Hydroxy-1-methyl-ethylamino)-5,8-dihydro-6H-pyrido[3,4-d]pyrimidine-7-carboxylic acid (benzooxazol-2-ylmethyl)-amide] are 52.8 nM and 10000 nM.
Take `CC(NC(=O)N1CCc2cnc(NC3CCOCC3)nc2C1)c1ccc2cc[nH]c2c1` (stereo not shown) [Compound I-107, N-(1-(1H-indol-6-yl)ethyl)-2-(tetrahydro-2H-pyran-4-ylamino)-5,6-dihydropyrido[3,4-d]pyrimidine-7(8H)-carboxamide]: the concentration for half-maximal inhibition (IC50) (usually the point on the concentration scale where inhibition reaches its midpoint) came out at 2.7 nM in test [1] and 30 nM in test [2].
With `C[C@@H](NC(=O)N1CCc2cnc(N[C@H](CO)Cc3ccccc3)nc2C1)c1ccc(Cl)c(Cl)c1` [II-111, 2-((S)-1-Hydroxymethyl-2-phenyl-ethylamino)-5,8-dihydro-6H-pyrido[3,4-d]pyrimidine-7-carboxylic acid [(R)-1-(3,4-dichloro-phenyl)-ethyl]-amide], the IC50 worked out at 4.7 nM in test [1] and 693 nM in test [2].
Turning to `Cc1cccc(CCNc2ncc3c(n2)CN(C(=O)N[C@H](CO)c2ccc(F)c(Cl)c2)CC3)n1` [II-10, 2-[2-(6-Methyl-pyridin-2-yl)-ethylamino]-5,8-dihydro-6H-pyrido[3,4-d]pyrimidine-7-carboxylic acid [(S)-1-(3-chloro-4-fluoro-phenyl)-2-hydroxy-ethyl]-amide], the IC50 is 61 nM in test [1] and 20800 nM in test [2].
On the same counts, the results for `CNC(=O)C(NC(=O)N1CCc2cnc(NC(C)C)nc2C1)c1ccc(F)c(Cl)c1` (stereo not shown) [II-26, 2-Isopropylamino-5,8-dihydro-6H-pyrido[3,4-d]pyrimidine-7-carboxylic acid [(3-chloro-4-fluoro-phenyl)-methylcarbamoyl-methyl]-amide] are 86.6 nM and 12200 nM.
On the same counts, the results for `C[C@@H](NC(=O)N1CCc2cnc(NC3CC(=O)N(C)C3)nc2C1)c1ccc(Cl)c(F)c1` (stereo partly shown) [II-267, 2-(1-Methyl-5-oxo-pyrrolidin-3-ylamino)-5,8-dihydro-6H-pyrido[3,4-d]pyrimidine-7-carboxylic acid [1-(4-chloro-3-fluoro-phenyl)-ethyl]-amide] are 20.1 nM and 28000 nM.
For `C[C@@H](CO)Nc1ncc2c(n1)CN(C(=O)NCc1ccc(Cl)c(Cl)c1)CC2` [Compound I-90, (S)—N-(3,4-dichlorobenzyl)-2-(1-hydroxypropan-2-ylamino)-5,6-dihydropyrido[3,4-d]pyrimidine-7(8H)-carboxamide], the IC50 in test [1] was found to be 2.1 nM; in test [2], 103 nM.
On to `C[C@@H](CO)Nc1ncc2c(n1)CN(C(=O)N[C@@H](c1ccc(Cl)c(Cl)c1)C(F)(F)F)CC2` [Compound I-23, N—((S)-1-(3,4-dichlorophenyl)-2,2,2-trifluoroethyl)-2-((S)-1-hydroxypropan-2-ylamino)-5,6-dihydropyrido[3,4-d]pyrimidine-7(8H)-carboxamide], for which the IC50 in test [1] came to 3.2 nM; in test [2] it was 493 nM.
Consider `O=C(NC(c1ccc(Cl)c(F)c1)c1nnco1)N1CCc2cnc(NC3CCOCC3)nc2C1` (stereo not shown) [Compound I-9, N-((4-chloro-3-fluorophenyl)(1,3,4-oxadiazol-2-yl)methyl)-2-(tetrahydro-2H-pyran-4-ylamino)-5,6-dihydropyrido[3,4-d]pyrimidine-7(8H)-carboxamide], for which the half-inhibitory concentration (IC50) turned out to be 2.4 nM in test [1] and 71.7 nM in test [2].
With `CC(C)Nc1ncc2c(n1)CN(C(=O)N[C@H](CNS(C)(=O)=O)c1ccc(F)c(Cl)c1)CC2` [II-43, 2-Isopropylamino-5,8-dihydro-6H-pyrido[3,4-d]pyrimidine-7-carboxylic acid [(S)-1-(3-chloro-4-fluoro-phenyl)-2-methanesulfonylamino-ethyl]-amide], the half-inhibitory concentration (IC50) in test [1] was 7.1 nM; in test [2], 917 nM.
The like results for `COC[C@@H](NC(=O)N1CCc2cnc(NCCO)nc2C1)c1ccc(Cl)c(Cl)c1` [Compound I-73] were, in that order, 9.8 nM and 241 nM.
Consider `O=C(N[C@@H](c1ccc(Cl)c(F)c1)[C@@H]1CNCCO1)N1CCc2cnc(NC3CCOCC3)nc2C1` (mixture of isomers) [Compound I-144, N—((R)-(4-chloro-3-fluorophenyl)((R)-morpholin-2-yl)methyl)-2-(tetrahydro-2H-pyran-4-ylamino)-5,6-dihydropyrido[3,4-d]pyrimidine-7(8H)-carboxamide and N—((S)-(4-chloro-3-fluorophenyl)((S)-morpholin-2-yl)methyl)-2-(tetrahydro-2H-pyran-4-ylamino)-5,6-dihydropyrido[3,4-d]pyrimidine-7(8H)-carboxamide mixture], for which the IC50 in test [1] turned out to be 2.3 nM; in test [2], 91.3 nM.
The like results for `C[C@@H](CO)Nc1ncc2c(n1)CN(C(=O)N[C@H](C)c1ccc(Cl)c(F)c1)CC2` [Compound I-21, N—((R)-1-(4-chloro-3-fluorophenyl)ethyl)-2-((S)-1-hydroxypropan-2-ylamino)-5,6-dihydropyrido[3,4-d]pyrimidine-7(8H)-carboxamide] were, in that order, 1.6 nM and 55.2 nM.
On the same counts, the results for `Cn1ccc(C(NC(=O)N2CCc3cnc(NC4CCOCC4)nc3C2)c2ccc(Cl)c(F)c2)n1` (stereo not shown) [Compound I-3, N-((4-chloro-3-fluorophenyl)(1-methyl-1H-pyrazol-3-yl)methyl)-2-(tetrahydro-2H-pyran-4-ylamino)-5,6-dihydropyrido[3,4-d]pyrimidine-7(8H)-carboxamide] are 3.8 nM and 101 nM.
Turning to `C[C@@H](NC(=O)N1CCc2cnc(N[C@H]3C[C@@H](O)C3)nc2C1)c1ccc(Cl)c(Cl)c1` [II-371, 2-((1S,3S)-3-Hydroxy-cyclobutylamino)-5,8-dihydro-6H-pyrido[3,4-d]pyrimidine-7-carboxylic acid [(R)-1-(3,4-dichloro-phenyl)-ethyl]amide], the IC50 in test [1] is 3.15 nM; in test [2], 90 nM.
Turning to `O=C(N1CCc2cnc(NC3CCOCC3)nc2C1)N1CCCC1c1ccccn1` (stereo not shown) [II-288, (2-Pyridin-2-yl-pyrrolidin-1-yl)-[2-(tetrahydro-pyran-4-ylamino)-5,8-dihydro-6H-pyrido[3,4-d]pyrimidin-7-yl]-methanone], the IC50 came out at 62.7 nM in test [1] and 9500 nM in test [2].
On the same counts, the results for `N#CC[C@@H](NC(=O)N1CCc2cnc(NC3CCOCC3)nc2C1)c1ccc(F)c(Cl)c1` [Compound I-59, (R)—N-(1-(3-chloro-4-fluorophenyl)-2-cyanoethyl)-2-(tetrahydro-2H-pyran-4-ylamino)-5,6-dihydropyrido[3,4-d]pyrimidine-7(8H)-carboxamide] are 0.6 nM and 85.5 nM.
